Measurements from ChEMBL document CHEMBL5380833 (J Med Chem, 2023).
Calls of active or inactive are those of the source. No cut-off for these calls is given here.

Key:
[1] = Bioavailability in Balb/c mouse at 10 mg/kg, ip measured upto 24 hrs by LC-MS/MS analysis; type: ADME, organism-based; settings: in vivo
[2] = AUC (0 to infinity) in Balb/c mouse at 5 mg/kg, iv measured upto 24 hrs by LC-MS/MS analysis; type: ADME, organism-based; parameters: time < 24 hrs, dose 5 mg/kg, route iv; settings: in vivo
[3] = AUC (0 to t) in Balb/c mouse at 5 mg/kg, iv measured upto 24 hrs by LC-MS/MS analysis; type: ADME, organism-based; parameters: dose 5 mg/kg, time < 24 hrs, route iv; settings: in vivo
Jurkat [4] = assay: Effect on CK1alpha expression in human Jurkat cells at 100 nM measured after 8 hrs by proteomics analysis; type: functional, cell-based
Interleukin-2 = Interleukin-2 (Homo sapiens, UniProt P60568); assay: Inhibition of IL-2 in human Jurkat cells pretreated with compound for 4 hrs followed by anti-CD3/CD28 stimulation by ELISA analysis; type: cell-based
Sequence of Interleukin-2 (P60568 whole entry): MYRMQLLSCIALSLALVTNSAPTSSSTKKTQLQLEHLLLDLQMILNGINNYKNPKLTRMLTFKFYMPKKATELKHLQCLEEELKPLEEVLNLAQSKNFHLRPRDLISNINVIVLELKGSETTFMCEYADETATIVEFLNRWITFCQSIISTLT

[5] = Half life in Balb/c mouse at 5 mg/kg, iv measured upto 24 hrs by LC-MS/MS analysis; type: ADME, organism-based; settings: in vivo
[6] = Toxicity in Balb/c mouse assessed as side effects at 5 mg/kg, iv measured upto 24 hrs by LC-MS/MS analysis; type: organism-based; settings: in vivo
[7] = Cmax in Balb/c mouse at 10 mg/kg, ip measured upto 24 hrs by LC-MS/MS analysis; type: ADME, organism-based; parameters: dose 10 mg/kg, time < 24 hrs, route ip; settings: in vivo
[8] = AUC (0 to infinity) in Balb/c mouse at 10 mg/kg, ip measured upto 24 hrs by LC-MS/MS analysis; type: ADME, organism-based; parameters: dose 10 mg/kg, time < 24 hrs, route ip; settings: in vivo
[9] = Half life in Balb/c mouse at 10 mg/kg, ip measured upto 24 hrs by LC-MS/MS analysis; type: ADME, organism-based; settings: in vivo
[10] = MRT last in Balb/c mouse at 5 mg/kg, iv measured upto 24 hrs by LC-MS/MS analysis; type: ADME, organism-based; settings: Balb/c, in vivo
[11] = AUC (0 to t) in Balb/c mouse at 10 mg/kg, ip measured upto 24 hrs by LC-MS/MS analysis; type: ADME, organism-based; parameters: time < 24 hrs, dose 10 mg/kg, route ip; settings: in vivo
[12] = Volume of distribution at steady state in Balb/c mouse at 10 mg/kg, ip measured upto 24 hrs by LC-MS/MS analysis; type: ADME, organism-based; settings: in vivo
[13] = target: T1, Protein cereblon/Tyrosine-protein kinase ITK/TSK (Mus musculus) (UniProt Q8C7D2+Q03526); assay: In vivo PROTAC activity at CRBN/ITK xenografted in Balb/c mouse peripheral blood assessed as prolongation of ITK degradation at 20 mg/kg, ip measured for 2 to 16 hrs by Western blot analysis; type: functional, organism-based; settings: time 2-16 hrs
[14] = target: T1, Protein cereblon/Tyrosine-protein kinase ITK/TSK (Mus musculus); assay: In vivo PROTAC activity at CRBN/ITK xenografted in Balb/c mouse spleen assessed as prolongation of ITK degradation at 20 mg/kg, ip measured for 2 to 16 hrs by Western blot analysis; type: functional, organism-based; settings: time 2-16 hrs
[15] = target: T2, Protein cereblon/Tyrosine-protein kinase ITK/TSK (Mus musculus, UniProt Q8C7D2+Q03526); assay: (§1) PROTAC activity at CRBN/ITK in Balc/c mouse Primary splenic cell assessed as ITK degradation by immunoblotting analysis; type: cell-based
T2 sequence (Q8C7D2 whole entry): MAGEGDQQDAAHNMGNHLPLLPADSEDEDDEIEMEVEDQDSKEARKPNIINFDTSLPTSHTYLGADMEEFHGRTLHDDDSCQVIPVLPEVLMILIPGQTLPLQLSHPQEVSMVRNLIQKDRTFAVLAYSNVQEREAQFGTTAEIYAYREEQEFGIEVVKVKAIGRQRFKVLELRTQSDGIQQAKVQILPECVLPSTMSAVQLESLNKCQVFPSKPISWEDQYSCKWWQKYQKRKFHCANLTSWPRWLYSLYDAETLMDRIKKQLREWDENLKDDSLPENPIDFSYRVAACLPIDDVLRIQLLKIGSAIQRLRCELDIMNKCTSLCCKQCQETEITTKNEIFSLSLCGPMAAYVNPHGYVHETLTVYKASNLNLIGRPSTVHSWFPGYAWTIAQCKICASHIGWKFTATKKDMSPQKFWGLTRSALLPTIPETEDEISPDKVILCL
T2 sequence (Q03526 whole entry): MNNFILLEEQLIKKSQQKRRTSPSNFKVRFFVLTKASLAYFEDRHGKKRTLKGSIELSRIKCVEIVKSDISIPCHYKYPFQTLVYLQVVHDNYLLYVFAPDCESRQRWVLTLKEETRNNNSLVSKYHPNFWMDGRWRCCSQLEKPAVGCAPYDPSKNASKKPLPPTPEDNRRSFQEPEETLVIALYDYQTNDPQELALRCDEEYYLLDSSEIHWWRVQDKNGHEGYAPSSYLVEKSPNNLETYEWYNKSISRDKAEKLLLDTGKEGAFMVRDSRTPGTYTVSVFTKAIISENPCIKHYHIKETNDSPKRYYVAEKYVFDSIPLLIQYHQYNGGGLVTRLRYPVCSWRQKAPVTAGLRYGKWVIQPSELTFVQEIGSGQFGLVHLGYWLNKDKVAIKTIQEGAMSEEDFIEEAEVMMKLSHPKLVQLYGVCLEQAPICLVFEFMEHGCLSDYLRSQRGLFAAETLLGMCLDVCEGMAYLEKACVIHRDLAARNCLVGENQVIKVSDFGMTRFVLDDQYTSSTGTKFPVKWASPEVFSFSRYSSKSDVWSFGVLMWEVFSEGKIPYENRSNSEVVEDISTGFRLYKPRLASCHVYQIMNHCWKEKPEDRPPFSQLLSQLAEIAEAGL

[16] = target: T1, Protein cereblon/Tyrosine-protein kinase ITK/TSK (Mus musculus); assay: as §1; type: cell-based; settings: dose 0.32-5000 nM
[17] = Clearance in Balb/c mouse at 5 mg/kg, iv measured upto 24 hrs by LC-MS/MS analysis; type: ADME, organism-based; settings: in vivo
Jurkat [18] = assay: Effect on IKZF3 expression in human Jurkat cells at 100 nM measured after 8 hrs by proteomics analysis; type: functional, cell-based
[19] = target: T3, Protein cereblon/Tyrosine-protein kinase ITK/TSK (Homo sapiens, UniProt Q08881+Q96SW2); assay: PROTAC activity at CRBN/ITK in human Jurkat cells assessed as induction of ITK degradation by Western blot analysis; type: cell-based; settings: read-out: EC50
Target sequence in this assay (Q08881 whole entry): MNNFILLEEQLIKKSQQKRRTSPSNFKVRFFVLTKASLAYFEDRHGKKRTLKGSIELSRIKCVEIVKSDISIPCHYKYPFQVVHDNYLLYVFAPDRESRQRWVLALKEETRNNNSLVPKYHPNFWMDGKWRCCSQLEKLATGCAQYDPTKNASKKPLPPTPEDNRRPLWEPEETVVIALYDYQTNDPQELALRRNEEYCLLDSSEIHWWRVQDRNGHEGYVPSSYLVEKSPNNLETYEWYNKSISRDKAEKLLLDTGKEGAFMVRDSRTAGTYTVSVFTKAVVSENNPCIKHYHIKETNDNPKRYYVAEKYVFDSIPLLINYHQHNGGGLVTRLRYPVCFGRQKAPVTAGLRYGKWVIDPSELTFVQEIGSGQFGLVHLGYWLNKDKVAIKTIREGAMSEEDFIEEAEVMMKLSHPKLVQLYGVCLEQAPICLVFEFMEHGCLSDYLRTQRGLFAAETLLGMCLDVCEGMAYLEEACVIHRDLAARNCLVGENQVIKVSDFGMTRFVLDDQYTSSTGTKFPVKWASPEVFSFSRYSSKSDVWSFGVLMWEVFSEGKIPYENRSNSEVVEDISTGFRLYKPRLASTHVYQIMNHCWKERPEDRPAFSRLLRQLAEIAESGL
Target sequence in this assay (Q96SW2 whole entry): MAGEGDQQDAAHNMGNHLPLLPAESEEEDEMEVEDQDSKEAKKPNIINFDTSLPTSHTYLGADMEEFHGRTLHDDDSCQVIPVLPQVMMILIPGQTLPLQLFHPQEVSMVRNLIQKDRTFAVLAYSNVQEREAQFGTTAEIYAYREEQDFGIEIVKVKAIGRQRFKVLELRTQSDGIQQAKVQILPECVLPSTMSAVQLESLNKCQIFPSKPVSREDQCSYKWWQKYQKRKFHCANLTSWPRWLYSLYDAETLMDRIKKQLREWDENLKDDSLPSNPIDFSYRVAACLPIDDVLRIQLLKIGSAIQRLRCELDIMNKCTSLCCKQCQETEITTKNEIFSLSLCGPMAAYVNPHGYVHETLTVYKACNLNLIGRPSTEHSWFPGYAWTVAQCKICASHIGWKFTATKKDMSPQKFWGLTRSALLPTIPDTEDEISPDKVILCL

[20] = Volume of distribution at steady state in Balb/c mouse at 5 mg/kg, iv measured upto 24 hrs by LC-MS/MS analysis; type: ADME, organism-based; settings: in vivo, read-out: Vdss
Jurkat [21] = assay: Effect on IKZF1 expression in human Jurkat cells at 100 nM measured after 8 hrs by proteomics analysis; type: functional, cell-based
[22] = target: T3, Protein cereblon/Tyrosine-protein kinase ITK/TSK; assay: PROTAC activity at CRBN/ITK in human Jurkat cells assessed as maximum degradation at 0.01 to 10 uM by Western blot analysis relative to control; type: cell-based; settings: dose 0.01-10 µM
Target sequence in this assay (Q08881 whole entry, looked up): as the sequence (Q08881 whole entry) above
Target sequence in this assay (Q96SW2 whole entry, looked up): as the sequence (Q96SW2 whole entry) above

[23] = Clearance in Balb/c mouse at 10 mg/kg, ip measured upto 24 hrs by LC-MS/MS analysis; type: ADME, organism-based; settings: in vivo
[24] = target: T1, Protein cereblon/Tyrosine-protein kinase ITK/TSK (Mus musculus); assay: In vivo PROTAC activity at CRBN/ITK xenografted in Balb/c mouse assessed as reduction in cytokine IL-2 production at 25 mg/kg, ip preincubated for 6 hrs followed by abti-CD3 stimulation and measured after 1.5 hrs by ELISA method relative to control; type: functional, organism-based; parameters: scale not given: the % may be the effect or the level left; settings: time 7.5 hrs
[25] = target: T1, Protein cereblon/Tyrosine-protein kinase ITK/TSK (Mus musculus); assay: PROTAC activity at CRBN/ITK in Balc/c mouse Primary splenic cell assessed as maximum degradation at 0.32 to 5000 nM by immunoblotting analysis relative to control; type: cell-based; settings: dose 0.32-5000 nM
[26] = Toxicity in Balb/c mouse assessed as drug tolerance at 10 mg/kg, ip measured upto 24 hrs by LC-MS/MS analysis; type: organism-based; settings: in vivo
Jurkat [27] = assay: Effect on GSPT1 expression in human Jurkat cells at 100 nM measured after 8 hrs by proteomics analysis; type: functional, cell-based
[28] = target: T3, Protein cereblon/Tyrosine-protein kinase ITK/TSK; assay: PROTAC activity at CRBN/ITK in human Jurkat cells assessed as downregulation of ITK protein by measuring fold change at 100 nM measured after 8 hrs; type: cell-based
Target sequence in this assay (Q08881 whole entry, looked up): as the sequence (Q08881 whole entry) above
Target sequence in this assay (Q96SW2 whole entry, looked up): as the sequence (Q96SW2 whole entry) above

[29] = Toxicity in Balb/c mouse assessed as drug tolerance at 5 mg/kg, iv measured upto 24 hrs by LC-MS/MS analysis; type: organism-based; settings: in vivo
[30] = MRT last in Balb/c mouse at 10 mg/kg, ip measured upto 24 hrs by LC-MS/MS analysis; type: ADME, organism-based; settings: in vivo
[31] = Toxicity in Balb/c mouse assessed as side effects at 10 mg/kg, ip measured upto 24 hrs by LC-MS/MS analysis; type: organism-based; settings: in vivo
[32] = Cmax in Balb/c mouse at 5 mg/kg, iv measured upto 24 hrs by LC-MS/MS analysis; type: ADME, organism-based; parameters: time < 24 hrs, dose 5 mg/kg, route iv; settings: in vivo

CC1(C)CCc2c(C(=O)Nc3cnn([C@@H](CCN4CCN(CCC5CCN(c6ccc7c(c6)C(=O)N(C6CCC(=O)NC6=O)C7=O)CC5)CC4)c4ccccc4)c3)n[nH]c2C1.O=C(O)C(F)(F)F (stereo partly drawn)
bioavailability [1]: 88.4% | AUC(0-inf) [2]: 15400 ng·h/mL | AUC(0-t) at 24 h [3]: 15100 ng·h/mL | Activity (Jurkat [4]): inactive | EC50 (Interleukin-2): 35.2 nM | half-life [5]: 4.39 h | Activity [6]: Non-Toxic | Cmax [7]: 3420 ng/mL | AUC(0-inf) [8]: 27300 ng·h/mL | half-life [9]: 5.75 h | MRT last at 24 h [10]: 4.42 h | AUC(0-t) at 24 h [11]: 25900 ng·h/mL | Vdss [12]: 3.06 L/kg | Activity [13]: Active | Activity [14]: Active | DC50 [15]: 2.1 nM | Activity [16]: Dose-Dependent Effect | clearance [17]: 5.4 mL/min/kg | Activity (Jurkat [18]): inactive | EC50 [19]: 3.6 nM | Vd [20]: 2.06 L/kg | Activity (Jurkat [21]): inactive | Emax [22]: 95% | CL/F [23]: 6.1 mL/min/kg | Activity [24]: 70% | Emax [25]: > 99% | Activity [26]: Non-Toxic | Activity (Jurkat [27]): inactive | fold change (FC) [28]: 0.37 | Activity [29]: Non-Toxic | MRT last at 24 h [30]: 5.84 h | Activity [31]: Non-Toxic | Cmax [32]: 4910 ng/mL
